Here are results for 21 compounds from patent US9150608B2, “Neuro-protective compounds and their use” (Biotechnology Research Corp. Ltd., priority 2010, dated 2015).

Assay [1] has as its system NMDA receptor-induced excitotoxicity in primary cortical neuronal cells. The assay is described as follows: NMDA survival assay (LDH release). The following applies: 30-50 μM pre-treated 2 hours, NMDA 20 min (FIG. 17). On the technique in general: LDH in the medium is a marker of cell lysis.
Experimental: Embryonic rat cortical neurons (11 DIV) were pre-treated with various concentrations of AG—0 (0.1 -30 μg/mL) and then co-incubated with NMDA (20 μM). After 20 min, the medium was replaced with fresh medium, and after overnight incubation lactate dehydrogenase (LDH) released into the medium was measured. Cell death was calculated as a percentage compared to solvent control (“CTL without NMDA”). Assays were conducted in duplicate and repeated at least twice. *=P<0.05.
Cortical neurons were plated on 48-well plate (Nunc) at a density of 1.1×10^5 cells per well and cultured for 11-12 days (11-12 DIV). Neurons were pre-treated with the test compounds for 2 hours prior to N-Methyl-D-Aspartate (NMDA, Sigma) or glutamate (MSG, Sigma) treatment. Briefly, the neurons were rinsed with Locke's solution (5 mM potassium chloride, 128 mM sodium chloride, 2.7 mM calcium chloride, 1 mM di-sodium hydrogen orthophosphate, 5 mM HEPES and 10 mM glucose in Milli-Q water) without Mg^2+, followed by incubation in Locke's solution with addition of glycine (0.1 μM) for 15 minutes. After the incubation, the neurons were co-treated with the test compound (dissolved in Locke's plus glycine solution) and NMDA (20 μM) or glutamate for 20 min. Neurons were then rinsed with Locke's solution containing Mg^2+ and replaced with fresh growth medium. Cell death was assayed and quantified using the lactate dehydrogenase release assay (Cytotoxicity Detection Kit, Roche). Data was compared to a DMSO vehicle control and represented in mean±SEM. The student t-test was used for statistical analysis.
The subject of assay [2] is rat cortical neurons cultured in the absence of B27. Put plainly: Cortical neuron survival assay with B27 withdrawal (MTT). Format: cell-based. The following applies: for cell survival of cortical neurons in the absence of B27 (MTT): 30 μM, pre-treated 24 hours (FIG. 15); for concentration showing neuroprotective effect in the absence of B27 (MTT): primary cortical neurons 7DIV, dose-dependent study 1-30 μM. As for the experimental part:
FIG. 2. Adelostemma gracillimum refined fraction promotes rat cortical neuron survival against B27 withdrawal. Cortical neurons isolated from embryonic day 18 rats were cultured in Neurobasal medium supplemented with 2 % B27. […] A MTT assay was performed 24 hours later. Cell survival is presented as a percentage compared to a DMSO control in the presence of B27 (“CTL with B27”). Assays were conducted in triplicate and repeated at least twice. *=P<0.05.
Primary cortical neurons were cultured in Neurobasal medium and supplemented with B27, a proprietary formula of Life Technologies. The combination of Neurobasal medium and B27 provides a stable growth environment for primary neurons to maturity in vitro. Neurons undergo apoptosis or cell death in the absence of B27. To study the neuroprotective effect of Adelostemma gracillimum refined fraction, neurons of 7DIV were treated with AG-0 and cell survival was measured as mitochondrial activity by the MTT assay.
The cells were then washed with Hanks' solution twice and replaced with test samples that were serial diluted in Neurobasal medium. A tetrazole, 3-(4,5-Dimethylthiazol-2-yl)-2,5-diphenyltetrazolium bromide (MTT, 5 mg/ml) was added to the medium at a ratio of 1:10 after a 2-day incubation. MTT is reduced by living cells into purple formazan and further solubilized in 20% SDS solution; therefore, the colored solution was measured by spectrophotometer and cell viability was quantified.

For assay [3], the system named is phosphorylated ERK, CREB, Akt, P38, MEK in cortical neurons. Put plainly: Western blot detection of signaling proteins in cortical neurons. The following applies: cortical neurons 7DIV. Format: cell-based, rat. (In general: Immunoblotting shows a protein as a band on a membrane.)
The test system of assay [4] is Aβ25-35-treated primary cortical neurons. Put plainly: Cortical neuron survival assay with amyloid-beta peptide insult (MTT). Format: cell-based, rat. The following applies: 50 μM, except GAG-C69 at 30 μM; Aβ25-35 10 μM (FIG. 19). As for the experimental part: FIG. 4. […] After overnight incubation, the MTT assay was performed. Cell survival was calculated as a percentage compared to vehicle control (“CTL no Abeta”).
Exogenous addition of amyloid beta peptide (Aβ) initiates cell death of neuronal cultures via apoptosis.
The cells were then incubated with test samples and amyloid-beta peptide fragment 25-35 (Aβ, 10 μM, Sigma) in growth medium. A tetrazole, 3-(4,5-Dimethylthiazol-2-yl)-2,5-diphenyltetrazolium bromide (MTT, 5 mg/ml) was added to the medium at a ratio of 1:10 after 24-hr incubation. MTT is reduced by living cells into purple formazan and further solubilized in 20% SDS solution; therefore, the colored solution was measured by spectrophotometer and cell viability was quantified.

Assay [5] deals with cyclic AMP response (CRE) element. The assay is described as follows: CRE-dependent transcription assay (luciferase). The following applies: hippocampal neurons 12DIV, 50 μM, 6 hours. Format: cell-based, rat. As for the experimental part:
FIG. 41. GAG compounds enhance CRE-dependent transcription activity. GAG-C14 (a), GAG-C53 (b), GAG-C63 (c), GAG-C69 (d), GAG-C84 (e), GAG-C111 (f), GAG-C122 (g), GAG-C123 (h), and GAG-C129 (i) induce CRE-dependent transcriptional activity in cultured hippocampal neurons. On the day of cell seeding, hippocampal neurons were transfected with a firefly luciferase reporter plasmid containing cyclic AMP response (CRE)-element. The cells at 12 DIV were then treated with 50 μM of AG compounds for 6 hours. Data are mean±SEM (n=3-4), *=P<0.05, **=P<0.01, and ***=P<0.005 versus vehicle-treated cells (0 μM), student's t test.
Cultured hippocampal neurons were transfected with a firefly luciferase reporter plasmid containing a cyclic AMP response (CRE) element. At 12DIV, the cells were treated with 50 μM of compound for 6 hours, then CRE-dependent transcription activity was assayed by measuring luciferase levels.
Freshly isolated embryonic cortical neurons were transfected with a luciferase reporter gene (Cre-Luc) linked to CREB activation following the ACM lipofectamine method using Lipofectamine 2000, a cationic liposome based reagent (Invitrogen). […] Transfection was performed using 1 μL Lipofectamine 2000 and 0.4 μg DNA per well. Neurons were then treated with test samples for time periods of 6 hours. After treatment, the cells were washed with ice-cold DPBS and 100 μL of 1× luciferase lysis buffer (Promega) was added. The plates were placed in −20° C. to freeze the cells, after which they were thawed to facilitate lysis. The lysates were transferred onto white bottom plates and assayed for renilla luciferase using the luciferase assay kit (Promega). Increased CREB activation in the neurons leads to an enhanced luciferase production and this was quantified using a Promega GloMax™ 96 microplate luminometer. […] BDNF and rolipram were used as positive controls.

As for `COC1CC(OC2C(C)CC(OC3C(C)OC(OC4CC[C@@]5(C)C(=CC[C@]6(O)C5C[C@@H](OC(=O)C=Cc5ccccc5)[C@@]5(C)[C@]6(O)CC[C@@]5(O)C(C)=O)C4)CC3OC)CC2OC)OC(C)C1O` (stereo partly drawn) [GAG-C87, Ikemagenin 3-O-β-D-Cymaropyranosyl-(1→4)-β-D-Oleandropyranosyl-(1→4)-β-D-Oleandropyranoside], the “neuronal survival following NMDA treatment (LDH)” value in assay [1] is “promoted neuronal survival”. On the same count and under the same terms, the same measure for `COC1CC(OC2C(C)OC(OC3C(C)OC(OC4C(C)OC(OC5CC[C@@]6(C)C(=CC[C@]7(O)C6C[C@@H](OC(=O)/C=C(\C)C(C)C)[C@@]6(C)[C@]7(O)CC[C@@]6(O)C(C)=O)C5)CC4OC)CC3OC)CC2OC)OC(C)C1O` (stereo partly drawn) [GAG-C92, Caudatin 3-O-β-D-Cymaropyranosyl-(1→4)-β-D-Cymaropyranosyl-(1→4)-β-D-Oleandropyranosyl-(1→4)-β-D-Oleandropyranoside]: “promoted neuronal survival”.

Regarding “12-O-cis/trans-cinnamoyl-20-acetyl-8,14-seco-sarcostin 3-O-β-D-Cymaropyranosyl-(1→4)-β-D-Cymaropyranosyl-(1→4)-β-D-Oleandropyranosyl-(1→4)-β-D-Oleandropyranoside [GAG-C96]”, the “neuronal survival following NMDA treatment (LDH)” value in assay [1] was “promoted neuronal survival”. Still for that read-out and setting: the same measure for `COc1cc(C2Oc3c(OC)ccc(C(C)=O)c3C2C)ccc1O` (stereo not shown) [GAG-C51, 3-methoxyl-4,4′-dihydroxy-1″-athanone-3′7-epoxy-8,2″-neolignane]: “promoted neuronal survival”.

Take `COc1c2ccoc2c(OCC=C(C)C)c2oc(=O)ccc12` [GAG-C82, 8-(3-methylbut-2-enyloxy)-5-methoxyl-psoralen]: the “cell survival of cortical neurons in the absence of B27 (MTT)” value (“cell survival … of B27 (MTT)” below) in assay [2] is listed as “promoted cell survival”. Take `CC1CC(C)(C)C2C=C(CC/C=C/C1=O)C(=O)O2` (stereo not shown) [GAG-C65, 8-oxohumula-2, 6(E)-dien-1,12-olide]: the “neuronal survival following NMDA treatment (LDH)” value in assay [1] is on record as “promoted neuronal survival”.

Take `COc1cc([C@@H]2c3cc(OC)c(O)cc3C=C(C)[C@H]2C)ccc1O` [GAG-C70, (7′α,8′β)-4,4′-dihydroxyl-3,3′-dimethyoxyl-6,7′-cycloligane-7-en]: the ERK phosphorylation entry in assay [3] (0.1-10 μM, 15 min (FIGS. 16, 18, 20)) is listed as “induced ERK phosphorylation”. Besides, in assay [4], the “cell survival of cortical neurons treated with Aβ25-35 (MTT)” value (from here on “cell survival … with Aβ25-35 (MTT)”) is “promoted cell survival”. For the same compound, the “neuronal survival following NMDA treatment (LDH)” value in assay [1] is on record as “promoted neuronal survival”. On to “12-O-cis/trans-cinnamoyl-20-acetyl-8,14-seco-sarcostin 3-O-β-D-Cymaropyranosyl-(1→4)-β-D-Cymaropyranosyl-(1→4)-β-D-Digitoxopyranosyl-(1→4)-β-D-Cymaropyranosyl-(1→4)-β-D-Oleandropyranoside [GAG-C104]”, for which the “cell survival … with Aβ25-35 (MTT)” value in assay [4] was “promoted cell survival”. Moreover, in assay [1], the “neuronal survival following NMDA treatment (LDH)” value is listed as “promoted neuronal survival”. For `C/C=C/c1cc(O)c(OC(C)C(O)c2cc(OC)c(O)c(OC)c2)c(OC)c1` (stereo not shown) [GAG-C59, 4,5′,7-trihydroxy-3, 3′,5-trimethyoxyl-hydroxy-(7′E)-(8-O-4)-neolignan-7′ en], in assay [4], the “cell survival … with Aβ25-35 (MTT)” value is on record as “promoted cell survival”. On the same count and under the same terms, the same measure for `C/C=C/c1ccc(OC(C)C(O)c2cc(OC)c(O)c(OC)c2)c(OC)c1` (stereo not shown) [GAG-C121, 3,3′,5-trimethoxy-4,7-dihydroxyl-(7′E)-(8-O-4′)-neolignan-7′en]: “promoted cell survival”; for `CC1(C)CC[C@@]2(C(=O)O)CC[C@]3(C)C(=CCC4[C@@]5(C)CCC(O)C(C)(CO)C5CC[C@]43C)C2C1` (stereo partly drawn) [GAG-C74, 3β,23-dihydroxyolean-12-en-28-oic acid]: “promoted cell survival”.

For `CC(C)=CCOc1c2occc2cc2ccc(=O)oc12` [GAG-C81, 8-(3-methylbut-2-enyloxy)-psoralen], the “cell survival … of B27 (MTT)” value in assay [2] is “promoted cell survival”. In addition, the “neuroprotective effect in the absence of B27 (MTT)” value in assay [2] (1-50 μM) is reported as “exhibited neuroprotective effects in a dose-dependent manner”.

Turning to “12-O-cis/trans-cinnamoyl-20-acetyl-8,14-seco-sarcostin 3-O-β-D-Cymaropyranosyl-(1→4)-β-D-Digitoxopyranosyl-(1→4)-β-D-Oleandropyranosyl-(1→4)-β-D-Oleandropyranoside [GAG-C102]”, the “neuronal survival following NMDA treatment (LDH)” value in assay [1] was “promoted neuronal survival”.

Take `C[C@]12CC[C@H]3[C@@H](C=CC4=CC(=O)CC[C@@]43C)[C@@H]1CC(C(=O)O)C2` (stereo partly shown) [GAG-C63, 4,6-diene-16-carboxylic acid-3-oxo-androstane]: the “CRE-dependent transcription activity (luciferase)” value in assay [5] is “enhances CRE-dependent transcription”.

As to “12-O-cis/trans-cinnamoyl-20-acetyl-8,14-seco-sarcostin 3-O-β-D-Cymaropyranosyl-(1→4)-β-D-Oleandropyranosyl-(1→4)-O-D-Oleandropyranoside [GAG-C90]”, the “neuronal survival following NMDA treatment (LDH)” value in assay [1] was “promoted neuronal survival”.

For the compound `COc1cc(C2c3cc(OC)c(O)cc3C3Oc4c(C(C)=O)ccc(O)c4CC3C2CO)ccc1O` (stereo not shown) [GAG-C61, 4-hydroxy-3′-methoxy-(7′E)-5′7-epoxy-8,4′-oxyneolignane-7′ en], the “neuronal survival following NMDA treatment (LDH)” value in assay [1] is reported as “promoted neuronal survival”.

Regarding “(K)-methyl 15-hydroxy-15-methoxy-12-oxopentadec-13-enoate [GAG-C78]”, the “ERK phosphorylation time course” value in assay [3] (30 μM) was “significantly induced ERK phosphorylation in cortical neurons from 15 min and persistently to 180 min”. Moreover, the CREB phosphorylation entry in assay [3] (30 μM, 15 min of incubation) is recorded as “induced CREB phosphorylation”. Further, in assay [2], the “cell survival … of B27 (MTT)” value is given as “promoted cell survival” and the “concentration showing neuroprotective effect in the absence of B27 (MTT)” value lay within 10 to 30 µM. `COc1cc(C)cc(C(O)C(O)c2cc(C)ccc2OC)c1` (stereo not shown) [GAG-C80, 2-(2-methoxy-5-methylphenyl)-1-(3-methoxy-5-methylphenyl)-ethane-1,2-diol]: in assay [2], the “cell survival … of B27 (MTT)” value was “promoted cell survival” and the “concentration showing neuroprotective effect in the absence of B27 (MTT)” value was 10 to 30 µM. With `C/C=C/c1ccc(OC(C)C(O)c2ccc(O)c(O)c2)c(OC)c1` (stereo not shown) [GAG-C13, 3,4,7-trihydroxyl-3′-methoxy-(7′E)-(8-O-4′)-neolignan-7′-en], in assay [4], the “cell survival … with Aβ25-35 (MTT)” value is “promoted cell survival”. Moreover, the “cell survival … of B27 (MTT)” value in assay [2] is on record as “promoted cell survival”. In assay [1], the “neuronal survival following NMDA treatment (LDH)” value is “promoted neuronal survival”. Consider “12-O-cis/trans-cinnamoylsacrostin 3-O-β-D-Cymaropyranosyl-(1→4)-β-D-Oleandropyranosyl-(1→4)-β-D-Oleandropyranoside [GAG-C86]”, for which, in assay [1], the “neuronal survival following NMDA treatment (LDH)” value is listed as “promoted neuronal survival”.

On to “3-O-β-D-Cymaropyranose-(1→4)-β-D-Digitoxopyranose-12-trans-cinnamyl-20-acetyl-8,14-seco-sacrostin [GAG-C30]”, for which, in assay [4], the “cell survival … with Aβ25-35 (MTT)” value is listed as “promoted cell survival”.
